We go through eleven compounds from US9487553B2, “Boranophosphate analogues of cyclic nucleotides” (BIOLOG LIFE SCIENCE INSTITUTE FORSCHUNGSLABOR UND …, priority 2011, dated 2016).

“And” between values parts separate entries of the source, which are not always exact repeats. Equal values may be shown once.

The subject of data set [1] is PDE 1 from bovine heart. As to the kind of experiment: Resistance towards phosphodiesterase: incubation with PDE 1 from bovine heart, HPLC. As to conditions: PDE 1, bovine heart. How it is done: For this purpose 0.1 μmol of Rp-8-bromoadenosine-3′,5′-cyclic boranophosphate (example 1) and Sp-8-bromoadenosine-3′,5′-cyclic boranophosphate […] dissolved in TRIS buffer pH 7.2 containing calcium chloride and calmodulin and incubated with PDE type I from bovine brain (Sigma-Aldrich) at 37° C. Activity of the enzyme was checked by hydrolysis of cyclic AMP. Stability was monitored by HPLC (RP-18, 11 Vol.-% propanol-2, 20 mM TEAF buffer, pH 6.8, 1 ml/min., UV 264 nm). […] This strategy of testing PDE performance was applied accordingly in degradation examples 10 and 11.
Thus, Rp-8-Br-cAMPB (example 1) and Sp-8-Br-cAMPS (Biolog, Bremen/Germany) were incubated with PDE 1 from bovine heart (Sigma-Aldrich) and monitored by HPLC as described above.
Rp-2′-O-Me-cAMPB (example 7) and Sp-2′-O-Me-cAMPS (Biolog, Bremen/Germany).

The nature of data set [2]: Degradation Example 3: oxidation with hydrogen peroxide, monitored by HPLC. The class given is physicochemical. The following applies: after 90 min. at RT. Here is the method: Thus, 0.1 μmol of the Rp-isomer of 8-(4-chlorophenylthio)-2′-O-methyladenosine-3′,5′-cyclic boranophosphate (Rp-8-pCPT-2′-O-Me-cAMPB, example 44), dissolved in 300 μl of water, was treated stepwise with 2 μl portions of 30% aqueous hydrogen peroxide solution (Merck). The oxidation process was monitored again by reversed phase HPLC (RP-18, 30 Vol.-% acetonitrile, 20 mM triethylammonium formate buffer, pH 8.3, 2 ml/min, UV 282 nm). As a control, the corresponding cyclic nucleotide with phosphorothioate modification (Sp-8-pCPT-2′-O-Me-cAMPS, Biolog) was added. In summary, 20 μl peroxide, were applied.

A short description of data set [3]: Degradation Example 1: oxidation with hydrogen peroxide, monitored by HPLC. It counts as physicochemical. As to conditions: after further addition of 10 μl of 30% H2O2, two hours at RT. The text has this:
In order to check out the stability of the boranophosphates described in this invention towards oxidising conditions in comparison to the corresponding phosphorothioates, 0.1 μmol of the sodium salts of each, Rp-8-bromoadenosine-3′,5′-cyclic boranophosphate (Rp-8-Br-cAMPB, example 1), Sp-8-bromoadenosine-3′,5′-cyclic boranophosphate (Sp-8-Br-cAMPB, example 2), Rp-8-bromoadenosine-3′,5′-cyclic phosphorothioate (Rp-8-Br-cAMPS, Biolog) and Sp-8-bromoadenosine-3′,5′-cyclic phosphorothioate (Sp-8-Br-cAMPS, Biolog) were dissolved in 100 μl of eluent and the mixture was analyzed by HPLC (RP-18, 11% acetonitrile, 20 mM triethylammonium formate buffer, pH 6.1, 1.5 ml/min, UV 258 nm). The following elution profile was recorded: Rp-8-Br-cAMPS (5:13 min.)<Sp-8-Br-cAMPS (7:23 min.)<Sp-8-Br-cAMPB (9:13 min.)<Rp-8-Br-cAMPB ([…].).
Subsequently, aqueous hydrogen peroxide (Merck) was added in small portions while the stability of the four compounds was permanently monitored over time.
10 μl of H2O2 (0.3%) as well as 10 μl of 3% H2O2 were added to no effect.

A short description of data set [4]: Degradation Example 7: oxidation with hydrogen peroxide, monitored by HPLC. As to conditions: for oxidation by peroxide: 5 portions of 30% H2O2; for HPLC Area %: hydrogen peroxide. It counts as physicochemical. Here is the method: The degradation experiment was monitored by HPLC (RP-18, 15 Vol.-% acetonitrile, 20 mM triethylammonium formate buffer, pH 6.5, 1 ml/min., UV 270 nm) and peak areas were recorded.

Data set [5] concerns the target T1, protein kinase G I α (Homo sapiens, UniProt Q13976).
T1 sequence (Q13976 1-671): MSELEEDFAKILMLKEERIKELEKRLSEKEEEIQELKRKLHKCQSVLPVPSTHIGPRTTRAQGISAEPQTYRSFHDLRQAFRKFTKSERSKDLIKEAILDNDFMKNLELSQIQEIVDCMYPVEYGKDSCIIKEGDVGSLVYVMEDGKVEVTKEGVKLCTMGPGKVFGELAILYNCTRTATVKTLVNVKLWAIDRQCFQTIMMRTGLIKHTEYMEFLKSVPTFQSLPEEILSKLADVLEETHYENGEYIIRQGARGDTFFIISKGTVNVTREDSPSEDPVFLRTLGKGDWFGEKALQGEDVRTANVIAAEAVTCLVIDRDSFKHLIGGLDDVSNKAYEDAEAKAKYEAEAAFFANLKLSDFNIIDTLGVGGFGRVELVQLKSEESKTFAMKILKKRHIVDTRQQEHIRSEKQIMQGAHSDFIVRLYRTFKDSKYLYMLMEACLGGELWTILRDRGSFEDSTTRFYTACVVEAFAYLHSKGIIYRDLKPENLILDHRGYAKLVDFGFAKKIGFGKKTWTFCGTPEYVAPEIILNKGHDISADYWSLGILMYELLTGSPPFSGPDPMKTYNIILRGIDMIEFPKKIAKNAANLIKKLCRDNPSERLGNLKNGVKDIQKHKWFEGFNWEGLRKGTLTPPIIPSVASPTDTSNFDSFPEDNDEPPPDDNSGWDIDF
As to the kind of experiment: Protein kinase G I alpha activation, phosphotransferyl assay. It counts as biochemical. The following applies: 10 nM, 100 nM and 1 μM. An excerpt:
Next, the activity profile of some cyclic boranophosphates disclosed in this invention has also been investigated on protein kinase G I α (FIGS. 8 and 9). Potential activatory potential towards the enzyme has been determined by a standard phosphotransferyl assay protocol according to Dostmann et al. (Dostmann, W. R.; Nickl, C.; Thiel, S.; Tsigelny, I.; Frank, R.; and Tegge, W. J., Pharmacol. Ther., 82, 373-387 (1999). FIG. 8 depicts the activity (μmol×min^−1×mg^−1) overview of six different cyclic boranophosphate analogues with protein kinase G type I at 10 nM, 100 nM and 1 μM. BLG-9108: […]; BLG-9110: Sp-8-Br-cAMPB; BLG-9111: Rp-8-Br-cAMPB; BLG-9112: Sp-8-Br-cGMPB; BLG-9113: Rp-8-Br-cGMPB; control: cyclic GMP.

The target in data set [6] is protein kinase A type I alpha holoenzyme (Homo sapiens, UniProt P10644). As to the kind of experiment: Standard photometric (Cook) assay with protein kinase A type I alpha holoenzyme. As to conditions: holoenzyme RIα. The class given is biochemical. The text has this:
In a first experiment, the biological activity of the Rp- and Sp-isomer of 8-bromoadenosine-3′,5′-cyclic boranophosphate (examples 1 and 2) has been tested with the holoenzyme of protein kinase A type I alpha (FIGS. 3 and 4) using a standard photometric assay (Cook, P. F.; Neville, M. E., Jr.; Vrana, K. E.; Hartl, F. T. and Roskoski, R., Jr., Biochemistry 21, 5794-5799 (1982)).
As a control, two boranophosphate analogues with a 2′-O-methyl modification (Rp-2′-O-Me-cAMPB and Sp-2′-O-Me-cAMPB, examples 7 & 8) have been tested by the same type of assay with protein kinase A type I alpha as well.
FIG. 5 depicts the activity overview of four different cyclic boranophosphate analogues with protein kinase A type I alpha holoenzyme. 9108: Sp-2′-O-Me-cAMPB; 9109: Rp-2′-O-Me-cAMPB; 9110: Sp-8-Br-cAMPB; 9111: Rp-8-Br-cAMPB; controls: B 001: Rp-8-Br-cAMPS. Control: cAMP. “Cook Assay” with Holoenzyme RIα.

Data set [7] in a line: Degradation Example 2: oxidation with hydrogen peroxide, monitored by HPLC. It counts as physicochemical. How it is done:
Thus, 0.05 μmol of the Rp-isomer of 8-(4-chlorophenylthio)adenosine-3′,5′-cyclic boranophosphate (Rp-8-pCPT-cAMPB, example 9), was treated stepwise with 5 μl portions of 30% aqueous hydrogen peroxide solution (Merck) every 30 min. The oxidation process was monitored by reversed phase HPLC (RP-18, 25 Vol.-% acetonitrile, 20 mM triethylammonium formate buffer, pH 6.1, 2 ml/min, UV 280 nm). As a control the corresponding cyclic nucleotide with phosphorothioate modification (Sp-8-pCPT-cAMPS, Biolog) was added. In summary, 15 μl peroxide, were applied.

In data set [8] the target is T2, PDE IV (A4B) (Homo sapiens, UniProt P27815).
T2 construct: Houslay lab, Glasgow/Scotland (obtained from another laboratory)
As to the kind of experiment: Stability against PDE IV, HPLC. It counts as in vitro ADME. As to conditions: human, Houslay lab), pH 7.2, read-out: half life of hydrolysis. How it is done: Next, stability of the disclosed boranophosphates against PDE IV (A4B, Houslay lab, Glasgow/Scotland) was tested in similar experiments as described above.

Sequence of protein kinase A type I alpha holoenzyme (P10644 whole entry): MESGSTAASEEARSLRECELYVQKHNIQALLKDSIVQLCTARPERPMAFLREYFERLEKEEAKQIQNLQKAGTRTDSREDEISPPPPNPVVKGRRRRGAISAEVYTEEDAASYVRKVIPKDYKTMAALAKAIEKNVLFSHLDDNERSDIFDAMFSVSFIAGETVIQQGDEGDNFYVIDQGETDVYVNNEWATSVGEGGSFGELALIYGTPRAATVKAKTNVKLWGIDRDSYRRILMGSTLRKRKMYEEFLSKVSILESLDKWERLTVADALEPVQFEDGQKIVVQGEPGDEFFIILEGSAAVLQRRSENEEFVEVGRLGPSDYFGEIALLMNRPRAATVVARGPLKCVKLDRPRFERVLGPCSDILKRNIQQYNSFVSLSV
T2 sequence (P27815 whole entry): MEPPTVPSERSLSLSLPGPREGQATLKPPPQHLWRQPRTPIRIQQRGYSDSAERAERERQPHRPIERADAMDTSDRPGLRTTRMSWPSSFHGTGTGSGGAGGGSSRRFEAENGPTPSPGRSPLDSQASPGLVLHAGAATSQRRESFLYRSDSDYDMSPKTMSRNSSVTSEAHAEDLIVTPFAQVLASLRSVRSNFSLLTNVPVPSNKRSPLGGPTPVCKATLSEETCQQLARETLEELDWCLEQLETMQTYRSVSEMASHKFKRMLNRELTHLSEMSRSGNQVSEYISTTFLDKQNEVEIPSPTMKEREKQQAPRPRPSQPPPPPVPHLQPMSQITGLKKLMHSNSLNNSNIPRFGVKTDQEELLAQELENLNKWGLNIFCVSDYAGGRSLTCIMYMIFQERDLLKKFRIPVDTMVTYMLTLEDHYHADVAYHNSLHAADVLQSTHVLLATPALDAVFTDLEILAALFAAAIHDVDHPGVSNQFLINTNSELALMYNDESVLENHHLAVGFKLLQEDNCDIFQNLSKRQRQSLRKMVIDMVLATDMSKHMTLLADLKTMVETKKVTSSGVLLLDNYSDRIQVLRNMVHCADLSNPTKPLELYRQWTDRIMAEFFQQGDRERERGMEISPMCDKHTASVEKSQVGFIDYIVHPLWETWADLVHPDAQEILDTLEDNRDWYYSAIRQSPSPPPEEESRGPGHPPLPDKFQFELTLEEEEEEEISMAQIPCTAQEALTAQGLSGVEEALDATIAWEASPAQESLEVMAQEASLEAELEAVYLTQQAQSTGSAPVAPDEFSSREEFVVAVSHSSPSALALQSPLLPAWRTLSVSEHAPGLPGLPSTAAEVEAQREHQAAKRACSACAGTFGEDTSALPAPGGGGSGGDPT

As to `COC1C2OP(O)(=S)OCC2OC1n1cnc2c(N)ncnc21` (stereo not shown) [Sp-2′-O-Me-cAMPS, reference compound], in data set [1], the “half life of degradation” value was found to be 1800 min.

As to `CO[C@H]1C2OP(O)(=S)OC[C@H]2O[C@H]1n1c(Sc2ccc(Cl)cc2)nc2c(N)ncnc21` (stereo partly shown) [Sp-8-pCPT-2′-O-Me-cAMPS, reference compound], the “peak area, % of the original area” value in data set [2] is reported as “completely degraded”.

Turning to `Nc1ncnc2c1nc(Br)n2C1OC2COP(O)(=S)OC2C1O` (stereo not shown) [Rp-8-Br-cAMPS, Rp-8-bromoadenosine-3′,5′-cyclic phosphorothioate, reference compound], the “HPLC signal after oxidation” value in data set [3] is listed as “completely vanished”.

As to `Nc1ccn([C@@H]2O[C@@H]3COP(O)(=S)O[C@H]3[C@H]2O)c(=O)n1` (single isomer, unassigned) [Sp-cCMPS, cytidine-3′,5′-cyclic phosphorothioate, Sp-isomer, reference compound], the “oxidation by peroxide” value in data set [4] is given as “rapidly oxidized”. The “HPLC Area %” value turned out to be 100% in data set [4] (Time 0 min); 94% in data set [4] (Time 10 min); 85% in data set [4] (Time 20 min); 69% in data set [4] (Time 34 min); 46% in data set [4] (Time 65 min); 23% in data set [4] (Time 81 min). The “HPLC Area %” value in data set [4] (Time 92 min) amounted to 14%; in data set [4] (Time 98 min) it was 13%.

On to `B[PH]1(O)OC[C@H]2O[C@@H](n3c(Sc4ccc(Cl)cc4)nc4c(N)ncnc43)C(OC)[C@@H]2O1` (stereo partly drawn) [Rp-8-pCPT-2′-O-Me-cAMPB, 8-(4-Chlorophenylthio)-2′-O-methyladenosine-3′,5′-cyclic boranophosphate, Rp-isomer], for which the “peak area, % of the original area” value in data set [2] was found to be 50%.

“8-Bromoguanosine-3′,5′-cyclic boranophosphate, Rp-isomer [Rp-8-Br-cGMPB]”: in data set [5], the “activation of protein kinase G” value was “activated the kinase”.

Turning to `B[PH]1(O)OC[C@H]2O[C@@H](n3ccc(N)nc3=O)C(O)[C@@H]2O1` (stereo partly drawn) [Rp-cCMPB, Cytidine-3′,5′-cyclic boranophosphate, Rp-isomer], the “oxidation by peroxide” value in data set [4] is reported as “considerably higher resistance”. In addition, the “HPLC Area %” value in data set [4] (Time 0 min) worked out at 100%; in data set [4] (Time 10 min), 99%; in data set [4] (Time 20 min) it was 98%; in data set [4] (Time 34 min), 96%; in data set [4] (Time 65 min) it was 91%; in data set [4] (Time 81 min) it was 84%. The “HPLC Area %” value in data set [4] (Time 92 min) is listed as 78%; in data set [4] (Time 98 min), 79%.

For “2′-O-Methyladenosine-3′,5′-cyclic boranophosphate, Sp-isomer [Sp-2′-O-Me-cAMPB]”, the “effect on protein kinase A type I alpha holoenzyme” value in data set [6] was “neither Rp- nor Sp-2′-O-Me-cAMPB did modulate the kinase in any way”.

With `B[PH]1(O)OC[C@H]2O[C@@H](n3c(Sc4ccc(Cl)cc4)nc4c(N)ncnc43)C(O)[C@@H]2O1` (stereo partly drawn) [Rp-8-pCPT-cAMPB, 8-(4-Chlorophenylthio)adenosine-3′,5′-cyclic boranophosphate, Rp-isomer], the “HPLC Area %” value in data set [7] (Time 0.00 h) was 100%; in data set [7] (Time 0.50 h) it was 87.51%; in data set [7] (Time 1.00 h) it was 82.89%; in data set [7] (Time 1.50 h, RT), 79% and 79.25%; in data set [7] (Time 18.00 h) it was 30% and 29.56%.

With `Nc1ncnc2c1ncn2[C@@H]1O[C@@H]2COP(=O)(O)O[C@H]2[C@H]1O` [cAMP, cyclic adenosine-3′,5′-monophosphate, reference compound], in data set [8], the half-life worked out at 5 min.

Take `Nc1ncnc2c1nc(Sc1ccc(Cl)cc1)n2[C@@H]1O[C@@H]2COP([O-])(=S)O[C@H]2[C@H]1O.[Na+]` (stereo partly shown) [Sp-8-pCPT-cAMPS, reference compound]: the “HPLC Area %” value in data set [7] (Time 0.00 h) is on record as 100%; in data set [7] (Time 0.50 h), 81.7%; in data set [7] (Time 1.00 h) it was 57.47%; in data set [7] (Time 1.50 h, RT), 45.71%; in data set [7] (Time 18.00 h) it was “completely vanished”; in data set [7] (Time 18.00 h, listed as Sp-8-pCPT-CAMPS) it was 0%. In data set [7] (after 1.5 hours at RT), the degraded result was “more than 50%”.

As a reminder, the half-life is the time in which the quantity being followed falls by half.
